PubChem BioAssay (NCI)
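Growth conditions: 96-well plates. Treatment: test compound, 48 hours, 5 concentrations. Analysis: linear interpolation between bracketing concentrations; unreached endpoints set to highest concentration. TGI: concentration producing complete growth inhibition.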

Columns and labels:
Test in all cases: inhibition of tumour cell growth, NCI panel, 48 h
K-562 leukemia = tested on: K-562 leukemia
OVCAR-3 ovarian = tested on: OVCAR-3 ovarian
A498 renal = tested on: A498 renal
SR leukemia = tested on: SR leukemia
SK-MEL-5 melanoma = tested on: SK-MEL-5 melanoma
SNB-75 CNS = tested on: SNB-75 CNS
OVCAR-4 ovarian = tested on: OVCAR-4 ovarian
CCRF-CEM leukemia = tested on: CCRF-CEM leukemia
M14 melanoma = tested on: M14 melanoma
SK-MEL-2 melanoma = tested on: SK-MEL-2 melanoma
HCC-2998 colon = tested on: HCC-2998 colon
KM20L2 colon = tested on: KM20L2 colon
SN12C renal = tested on: SN12C renal
OVCAR-8 ovarian = tested on: OVCAR-8 ovarian
MDA-N = tested on: MDA-N
NCI/ADR-RES ovarian = tested on: NCI/ADR-RES ovarian
T-47D breast = tested on: T-47D breast
DU-145 prostate = tested on: DU-145 prostate
MDA-MB-231 breast = tested on: MDA-MB-231 breast
MCF7 breast = tested on: MCF7 breast

Row | Structure (SMILES) | TGI (K-562 leukemia) | TGI (OVCAR-3 ovarian) | TGI (A498 renal) | TGI (SR leukemia) | TGI (SK-MEL-5 melanoma) | TGI (SNB-75 CNS) | TGI (OVCAR-4 ovarian) | TGI (CCRF-CEM leukemia) | TGI (M14 melanoma) | TGI (SK-MEL-2 melanoma) | TGI (HCC-2998 colon) | TGI (KM20L2 colon) | TGI (SN12C renal) | TGI (OVCAR-8 ovarian) | TGI (MDA-N) | TGI (NCI/ADR-RES ovarian) | TGI (T-47D breast) | TGI (DU-145 prostate) | TGI (MDA-MB-231 breast) | TGI (MCF7 breast)
1 | CC(=O)OC1CC2C(C)(C)C(=O)C=C[C@]2(C)C2CCC3(C)C(c4ccoc4)[C@@H](O)[C@H]4O[C@]43[C@]12C (stereo partly specified) | 39.5 µM | 31.8 µM | 49.7 µM | 41.4 µM | 34.2 µM | 57.3 µM | 38.8 µM | 54 µM | 37.7 µM | 39.6 µM | 29.6 µM | 33.4 µM | 34.1 µM | 36.2 µM | – | – | – | – | – | –
2 | CC1=CC(=O)c2c(C=O)c(O)c(O)c(C(C)C)c2C1=O | > 100 µM | – | 78 µM | > 74.4 µM | 65 µM | > 100 µM | 23.8 µM | 60.1 µM | > 100 µM | 57.5 µM | > 94.5 µM | > 100 µM | > 100 µM | > 56.5 µM | – | – | – | – | – | –
3 | CCCCCNC(=O)c1c(O)[nH]c(=S)[nH]c1=O | > 100 µM | > 100 µM | > 100 µM | > 100 µM | > 100 µM | > 100 µM | > 100 µM | > 100 µM | > 100 µM | > 100 µM | – | > 100 µM | > 100 µM | > 100 µM | – | – | – | – | – | –
4 | Cc1c(C(=O)/C=C/c2c(Cl)cccc2Cl)c(=O)n(-c2ccccc2)n1C | – | 73.5 µM | 98.4 µM | – | – | – | – | 56.6 µM | – | 75 µM | 65.8 µM | > 100 µM | > 100 µM | > 100 µM | – | – | – | – | – | –
5 | Cn1c(=O)cc(N=Nc2ccc(Cl)c(Cl)c2)[nH]c1=O | 55.9 µM | 33.2 µM | > 100 µM | 54 µM | > 100 µM | > 100 µM | 61.7 µM | 68.8 µM | 47.7 µM | 45.2 µM | > 100 µM | – | > 100 µM | 53 µM | 37.4 µM | 77.4 µM | > 100 µM | > 100 µM | 45.3 µM | 59.8 µM
6 | CNCCCNC1(c2cc3ccccc3s2)CCCCC1 | 4.11 µM | 25.4 µM | 14.1 µM | 3.44 µM | 5.68 µM | 19.5 µM | 27 µM | 4.51 µM | 8.06 µM | 10.9 µM | 2.61 µM | – | 18.4 µM | 28.4 µM | 5.85 µM | 29.9 µM | 11.9 µM | 24.2 µM | 12.6 µM | 15.5 µM
